{"source": "paper PMC3681751", "about": "“Identification of a Novel Antimicrobial Peptide from Human Hepatitis B Virus Core Protein Arginine-Rich Domain (ARD)” (PLoS Pathogens, 2013)", "key": {"[1]": {"tested_on": "P. aeruginosa", "assay": "Effect of added LPS on bactericidal activity", "type": "cell-based, Pseudomonas aeruginosa", "details": "2 µM peptide (1×MBC), LPS from P. aeruginosa or E. coli at 50 µg/ml, 3 hours, triplicates", "method": "To determine whether LPS of Gram-negative bacteria could serve as a potential target of HBc147-183, LPS (0.05 to 50 µg/ml) from either P. aeruginosa or E. coli (Sigma) were incubated with both P. aeruginosa and 2 µM HBc147-183 for three hours, respectively. […] In addition, HBc147-183 preferentially bound to the LPS from P. aeruginosa, rather than that from E. coli. However, the addition of anti-LPS antibody (Genetex Co.) cannot sufficiently neutralize the bactericidal activity of HBc147-183 (Figure 5). […] Alternatively, HBc147-183 and the anti-LPS polyclonal antibody used here could bind predominantly to two different epitopes on the LPS.\nFigure 5 Dose response effects of LPS and LPS antibody (triangle) on the bactericidal activity of HBc147-183. LPS from P. aeruginosa (square) and E. coli (diamond), and LPS antibody (triangle) were mixed with P. aeruginosa and HBc147-183 (1×MBC) for 3 hours. The bacteria were then plated on MH agar for the measurement of viability. Samples were measured in triplicates."}, "[2]": {"tested_on": "A. baumannii ATCC17978 CR", "type": "cell-based, Acinetobacter baumannii", "details": "colistin-resistant A. baumannii of Table 2", "description": "(§1) Clinical isolates of Pseudomonas aeruginosa (NHRI-01, NHRI-02 and NHRI-04) were obtained through the program of Taiwan Surveillance of Antimicrobial Resistance (TSAR), National Health Research Institutes (NHRI), Taiwan. Acinetobacter baumannii (ATCC 17989, ATCC 17978 CR, ATCC19606, ATCC 19606 CR, TCGH 45530 and TCGH 46709) were obtained from Tzu-Chi Buddhist General Hospital (TCGH) in Taiwan, and clinical isolates (TCGH 45530 and TCGH 46709) were identified using the Vitek system (Biomerieux Vitek, Inc., Hazelwood, MO, USA). A. baumannii is defined as multidrug-resistant, when the organism is resistant to piperacillin, piperacillin-tazobactam, ampicillin/sulbactam, imipenem, ceftazidime, gentamicin, amikacin, tetracycline, chloramphenicol, ciprofloxacin, and cotrimoxazole. Susceptibility to colistin was determined using the broth-dilution method, in accordance with the guidelines of the Clinical and Laboratory Standards Institute (CLSI).\n(§2) All peptides were purchased from Yao-Hong Biotechnology Inc. (Taipei, Taiwan). Vendors provided data of peptide characterizations, including HPLC and Mass (data not shown). Antimicrobial activity was determined as described with some modifications as detailed below. Bacteria were grown overnight in Mueller–Hinton broth (Difco) at 37°C, and during the mid-logarithmic phase, bacteria were diluted to 10^6 CFU (colony formation unit)/ml in phosphate buffer (10 mM sodium phosphate and 50 mM sodium chloride, pH 7.2). Peptides were serially diluted in the same buffer. Fifty microliter (µl) of bacteria was mixed with fifty µl of peptides at varying concentrations followed by incubation at 37°C for 3 hours without shaking. At the end of incubation, bacteria were placed on Mueller-Hinton broth agar plates, and allowed growth at 37°C overnight for measurement of minimal bactericidal concentration (MBC). […] All peptides were tested in triplicate."}, "[3]": {"tested_on": "A. baumannii ATCC19606 CR", "type": "cell-based, Acinetobacter baumannii", "details": "Induced Colistin resistant strain; colistin susceptibility by broth-dilution (CLSI)", "description": "as §1, §2"}, "[4]": {"tested_on": "A. baumannii ATCC19606", "type": "cell-based, Acinetobacter baumannii", "details": "ATCC19606, 3 h", "description": "as §1, §2"}, "[5]": {"tested_on": "A. baumannii ATCC17978", "type": "cell-based, Acinetobacter baumannii", "details": "text summary over the A. baumannii strains of Table 2", "description": "as §1, §2"}, "[6]": {"tested_on": "A. baumannii TCGH46709", "type": "cell-based, Acinetobacter baumannii", "details": "TCGH46709, 3 h", "description": "as §1, §2"}, "[7]": {"tested_on": "A. baumannii TCGH45530", "type": "cell-based, Acinetobacter baumannii", "details": "TCGH45530, 3 h", "description": "as §1, §2"}, "[8]": {"tested_on": "K. pneumonia", "assay": "SYTOX Green uptake (membrane permeabilization)", "type": "cell-based, Klebsiella pneumoniae", "details": "4 µM peptide; 10^7 CFU, 1 µM SYTOX Green, 37°C", "method": "Briefly, bacteria (10^7 CFU) were prepared and mixed with 1 µM SYTOX Green (Invitrogen) for 15 minutes in the dark. […] Melittin (Sigma), the major toxin of bee venom, was used as a positive control to provide maximal permeabilization."}, "[9]": {"tested_on": "P. aeruginosa", "assay": "Killing kinetics", "type": "cell-based, Pseudomonas aeruginosa", "details": "2 µM peptide (1×MBC), 37°C, triplicates", "method": "(§3) For measurement of killing kinetics, bacteria and peptides were prepared as described above. Fifty µl of bacteria were mixed with fifty µl of peptides at the concentrations corresponding to MBC and were incubated at 37°C. At the indicated time, bacteria were serially diluted and placed on Mueller-Hinton broth agar plates for the viability measurement."}, "[10]": {"tested_on": "S. aureus", "assay": "Killing kinetics", "type": "cell-based, Staphylococcus aureus", "details": "4 µM peptide (1×MBC), 37°C, triplicates", "method": "as §3"}, "[11]": {"tested_on": "human red blood cells (hRBCs)", "assay": "Hemolytic activity", "type": "cell-based", "details": "10% hRBCs in PBS, 1 h at 37°C, absorbance 405 nm; 100% = 1% Triton X-100; triplicates", "method": "The hemolytic activities of peptides were determined by hemolysis against human red blood cells (hRBCs). Human blood was obtained in EDTA-containing tube and was centrifuged at 450 g for 10 min. The pellet was washed three times with PBS buffer, and a solution of 10% hRBCs was prepared. hRBCs solution was mixed with serial dilutions of peptides in PBS buffer, and the reaction mixtures were incubated for 1 h at 37°C. After centrifugation at 450 g for 10 min, the percentage of hemolysis was determined by measuring the absorbance at the wavelength of 405 nm of the supernatant. Blank and 100% hemolysis were determined in PBS buffer and in the presence of 1% Triton X-100, respectively."}, "[12]": {"tested_on": "E. coli (ATCC 25922)", "type": "cell-based, Escherichia coli", "details": "3 h at 37°C in phosphate buffer pH 7.2; triplicate", "summary_of_the_method": "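Peptides were incubated with buffer-suspended bacteria (10^6 CFU/ml) for 3 hours at 37°C, then cells were plated overnight to find the MBC.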"}}, "note": "Residues, ends and D or L forms follow the SMILES beside them.", "data": [{"smiles": "CC(C)[C@H](NC(=O)[C@@H](NC(=O)[C@@H](N)[C@@H](C)O)C(C)C)C(=O)N[C@@H](CCCNC(=N)N)C(=O)N[C@@H](CCCNC(=N)N)C(=O)N[C@@H](CCCNC(=N)N)C(=O)NCC(=O)N[C@@H](CCCNC(=N)N)C(=O)N[C@@H](CO)C(=O)N1CCC[C@H]1C(=O)N[C@@H](CCCNC(=N)N)C(=O)N[C@@H](CCCNC(=N)N)C(=O)N[C@@H](CCCNC(=N)N)C(=O)N[C@H](C(=O)N1CCC[C@H]1C(=O)N[C@@H](CO)C(=O)N1CCC[C@H]1C(=O)N[C@@H](CCCNC(=N)N)C(=O)N[C@@H](CCCNC(=N)N)C(=O)N[C@@H](CCCNC(=N)N)C(=O)N[C@@H](CCCNC(=N)N)C(=O)N[C@@H](CO)C(=O)N[C@@H](CCC(N)=O)C(=O)N[C@@H](CO)C(=O)N1CCC[C@H]1C(=O)N[C@@H](CCCNC(=N)N)C(=O)N[C@@H](CCCNC(=N)N)C(=O)N[C@@H](CCCNC(=N)N)C(=O)N[C@@H](CCCNC(=N)N)C(=O)N[C@@H](CO)C(=O)N[C@@H](CCC(N)=O)C(=O)N[C@@H](CO)C(=O)N[C@@H](CCCNC(=N)N)C(=O)N[C@@H](CCC(=O)O)C(=O)N[C@@H](CO)C(=O)N[C@@H](CCC(N)=O)C(=O)N[C@@H](CS)C(=O)O)[C@@H](C)O", "note": "[HBc147-183] (H-TVVRRRGRSPRRRTPSPRRRRSQSPRRRRSQSRESQC-OH; N-terminus and C-terminus assumed)", "values": [{"measurement": "Bactericidal activity in the presence of LPS", "setting": "[1]", "value": "significantly reduced"}, {"measurement": "MBC against all tested colistin-resistant A. baumannii", "setting": "[2]", "value": "0.5 to 1", "unit": "µM"}, {"measurement": "MBC", "setting": "[3]", "value": 2.30, "unit": "µg/mL"}, {"measurement": "MBC", "setting": "[4]", "value": 2.30, "unit": "µg/mL"}, {"measurement": "MBC against colistin-sensitive and colistin-resistant A. baumannii", "setting": "[5]", "value": "0.5 to 1", "unit": "µM"}, {"measurement": "MBC", "setting": "[6]", "value": 4.59, "unit": "µg/mL"}, {"measurement": "MBC", "setting": "[7]", "value": 2.30, "unit": "µg/mL"}, {"measurement": "Membrane permeabilization (SYTOX Green uptake)", "setting": "[8]", "value": "not able to induce membrane permeabilization"}, {"measurement": "Time to complete killing", "setting": "[9]", "value": "≤ 20", "unit": "min"}, {"measurement": "Time to complete killing", "setting": "[10]", "value": 120, "unit": "min"}, {"measurement": "Hemolysis", "setting": "[11]", "value": "no detectable hemolysis"}, {"measurement": "Antimicrobial activity, MBC", "setting": "[12]", "value": 18.36, "unit": "µg/mL"}]}]}
